Measurements reported in patent EP2177218A1, “Regenerative therapy” (Medizinische Universität Wien, priority 2008, dated 2010).
“Also recorded” adds a separate entry of the source.

Assays:
OPCs [1] = experiment: TUNEL assay (apoptosis); format: cell-based, Sprague-Dawley rat; conditions: treated OPCs on MPE vs OPCs on PLL control, Fig. 7
Method: Fragmented DNA was detected by incorporation of biotinylated nucleotides at the 3'-OH DNA ends using Terminal Deoxynucleotidyl Transferase recombinant (rTdT) enzyme according to the manufacturer's instruction (Promega). Stained cells were visualized by light microscopy and the percentage of apoptotic nuclei was determined.

OPCs [2] = experiment: OPC differentiation on myelin protein extract (MPE) or myelin substrate, O4 immunocytochemistry, pharmacological agents; format: cell-based, Sprague-Dawley rat; conditions: for OPC differentiation / O4 expression in the presence of myelin inhibitors (result in words): differentiation medium; for max. mean increase of OPC differentiation: 48 hours incubation in differentiation medium, Fig. 4; for mean increase of OPC differentiation: OPCs on myelin (MPE)
Method: Primary cultures of oligodendrocyte precursor cells were isolated from PO-P2 neonatal Sprague-Dawley rat forebrains following a Standard protocol (McCarthy et al., J Cell Biol 85 (1980): 890-902) that were adapted for the present purpose (Syed et al. 2008, supra). In brief, hemispheres were stripped free of meninges, after a digestion step the cells were plated into cell culture flasks and mixed glia cultures were grown for approx. 10 days in DMEM medium supplemented with 10% PCS at 37°C and 7,5% CO2. To remove the loosely attached microglia the flasks were shaken for 1 hour at 260rpm on an orbital shaker before being shaken at 260rpm overnight to dislodge the loosely attached oligodendrocyte precursors. OPCs were further purified from contaminating microglia by a differential adhesion step. Subsequently OPCs were plated onto polylysine (PLL)-coated or Substrate coated dishes. To maintain cells at an early precursor stage PDGF-AA (Pepro Tech) and FGF (Pepro Tech) were added (10ng/ml) to SATOs medium. To induce differentiation cells were incubated in SATOs medium supplemented with 0.5% FCS. The purity of each culture was monitored following OPC purification by immunocytochemistry and only cultures with >94% purity were used. In the cultures minor contaminations of microglia that can be detected by isolectin staining and which amount to 4-5% of the cells, as well as by astrocytes (detectable by GFAP) and fibroblasts with distinct morphology, which account for about 1-2% of the cells are present.
To prepare myelin protein extract (MPE) the pellets were re-suspended in 1% N-octyl β-D-glucopyranoside, 0.2M Sodiumphosphate pH 6.8, 0.1 M Na2SO4 and 1mM EDTA and incubated at 23°C for 2 hours. Following an ultracentrifugation step (100,000 x g, 18°C, 30 min) the supernatants were collected and stored at -20°C until further usage.
The pooled OPCs harvested as outlined above were seeded at the same density of 20000 cells per well into polylysine (PLL)-coated 8-well chamber slides. Cells were differentiated for 48 hours and subsequently fixed with 4% paraformaldehyde in PBS, permeabilised and blocked with 0.3% Triton X-100 and 10% NGS. To assess the differentiation state of OPCs the cells were incubated with 04 antibody (1:100; Chemicon) for 1 hour in the presence of 0.1% Triton X-100 and 2% NGS, washed, and incubated for another 1 hour with the appropriate fluorescent secondary antibody (Cy3-conjugated antibody 1:100; Jackson Immuno Research) and the nuclei were stained using DAPI (Robinson et al., Dev Biol 216 (1999): 359-368; Syed et al. 2008, supra). It is important to note that permeabilisation of cells results in a punctate representation of the extracellular antigen 04 (Reynolds et al., Curr Opin Biotechnol 4 (1993): 734-738; Weiss et al., J Neurosci 16 (1996): 7599-7609; Syed et al. 2008, supra). Under an Olympus X51 fluorescent microscope using a triple-filter the percentage of O4-positive cells in relation to >100 DAPI-stained nuclei in randomly selected eye fields for each experimental condition were determined. To establish the purity of the OPC cultures immunocytochemistry for A2B5 (1:100; Chemicon) was performed according to the same principles and the percentage of A2B5+ cells to >100 DAPI-stained nuclei in randomly selected eye fields was determined. Only cell cultures with >94% A2B5-pos. cells were used for the present study. To assess the morphological phenotype of OPCs, A2B5+-cells were categorised according to the following criteria: stage 1: mono/bipolar; stage II: multipolar, primary branched; stage III: multipolar, secondary branched; stage IV: secondary branched cells with membranous processes.
To examine whether ROCK-II and PKC Signal transduction is implicated in the myelin mediated differentiation block, pharmacological inhibitors were added to the culture medium immediately after cell seeding. […]

CREB = CREB phosphorylation in OPCs (immunoprecipitation, Western blot for phospho-CREB); format: cell-based, Sprague-Dawley rat; conditions: in the presence of MAI, Fig. 14
EB lesions = experiment: In situ hybridisation for cell markers in EB lesions; format: in vivo, Sprague-Dawley rats; conditions: 0,5mg/KG/d s.c.; for number of active OPCs (Nkx2.2): day 7, vs PBS vehicle; for macrophage marker MRSB (immune response): day 7 and day 14, vs PBS vehicle; for number of PDGFR-α positive OPCs in lesions / number of PLP positive cells (mature oligodendrocytes): day 14, vs PBS vehicle
Method: To validate the finding that administration of rolipram promotes CNS remyelination, the experiments were repeated as follows. EB lesions were induced in Sprague-Dawley rats, and rats were treated either with rolipram (0,5mg/KG/d) or PBS vehicle administered via s.c. osmotic pumps implanted 3 days post lesion induction. Animals were sacrificed at day 7 and day 14 post lesion induction and the tissue processed for in situ hybridization. The lesion area was visualized and measured on digitized solochrome cyanine stained sections and the number of cells within the lesion area as detected by ISH was determined.
PDGFR-α, a general marker for OPCs, was used to determine the presence of OPCs in the lesions.
Nkx2.2 can be used to detect activated OPCs within remyelinating lesions.
To detect mature oligodendrocytes, in situ hybridization for PLP was conducted. The extent of remyelination in control animals at 14 days is minimal. As to be expected in control animals the number of PLP positive cells remained unchanged at day 7 and day 14.
Finally, ISH for MRSB, a marker for macrophages, was used to determine whether rolipram treatment affects the immune response.

demyelinating lesions = experiment: Remyelination in vivo after ethidium bromide lesions, blind ranking of semithin resin sections; parameters: species or system Sprague Dawley rats; conditions: 0.5 mg/kg/d s.c. osmotic pumps, 14 days post lesion induction, preliminary
Method: The in vitro finding that rolipram is able to promote OPC differentiation in the presence of MAI was further developed to confirm remyelination in vivo. For this purpose demyelinating lesions were induced by topic injection of ethidium bromide into white matter tracts of young adult Sprague Dawley rats, and rolipram was applied subcutaneously by continuous osmotic pumps. 0,5mg/KG/d of rolipram was used in the first set of experiments that assessed the rate of remyelination. […] This is the first experiment that succeeded in enhancing the efficiency of remyelination in this model (Fig. 16).

Compound: O=S(=O)(c1cccc2cnccc12)N1CCCNCC1 [HA-1077, 1-(5-lsoquinolinesulfonyl)-1H-hexahydro-1,4-diazepine 2 HCI]
- apoptosis, TUNEL positive cells (OPCs [1]): no significant differences
- mean increase in the number of differentiating OPCs (OPCs [2]; OPCs on MPE, 5µM, 48 hours in differentiation medium, n=4): 174%
- increase of differentiating cells (OPCs [2]; OPCs on MPE, 48h culture in differentiation medium, Fig. 3b): more than 160%
- OPC differentiation / O4 expression in the presence of myelin inhibitors (result in words) (OPCs [2]; OPCs on MPE): largely restored

Compound: NCCCCN [putrescine]
- OPC differentiation / O4 expression in the presence of myelin inhibitors (result in words) (OPCs [2]; OPCs on MPE): not the case
- OPC differentiation / O4 expression in the presence of myelin inhibitors (result in words) (OPCs [2]; OPCs on MPE, listed as Putrescine): does not stimulate OPC differentiation

Compound: 12-(2-cyanoethyl)-6,7,12,13-tetrahydro-13-methyl-5-oxo-5H-indolo[2,3-a]pyrrollo[3,4-c]carbazole [Gö6976]
- apoptosis, TUNEL positive cells (OPCs [1]): no differences
- max. mean increase of OPC differentiation (OPCs [2]; OPCs on MPE): 269%
- mean increase of OPC differentiation (OPCs [2]; 50nM, n=3): 267%

Compound: [H]/N=C(/N)SCCCn1cc(C2=C(c3cn(C)c4ccccc34)C(=O)NC2=O)c2ccccc21 [BIM, Bisindolylmaleimide IX]
- max. mean increase of OPC differentiation (OPCs [2]; OPCs on MPE): 169%
- mean increase of OPC differentiation (OPCs [2]; 6.25nM, n=4): 169%

Compound: CCCC(=O)Nc1ncnc2c1ncn2[C@@H]1O[C@@H]2COP(=O)([O-])O[C@H]2[C@H]1OC(=O)CCC.[Na+] [db-cAMP]
- OPC differentiation / O4 expression in the presence of myelin inhibitors (result in words) (OPCs [2]; OPCs on MPE): partially overcome

Compound: COc1ccc(C2CNC(=O)C2)cc1OC1CCCC1 (centres unmarked) [rolipram]
- CREB phosphorylation / activation in OPCs (CREB): restores CREB activation
- CREB phosphorylation / activation in OPCs (CREB; listed as Rolipram): inducing CREB phosphorylation
- differentiation capability of OPCs plated on MPE (OPCs [2]; 0.5µM in the medium): completely restore
- OPC differentiation / O4 expression in the presence of myelin inhibitors (result in words) (OPCs [2]; OPCs on MPE): able to induce OPC differentiation; also recorded: able to restore OPC differentiation
- number of active OPCs (Nkx2.2) (EB lesions): effectively increased
- number of active OPCs (Nkx2.2) (EB lesions; listed as Rolipram): increase
- macrophage marker MRSB (immune response) (EB lesions): no differences detected
- macrophage marker MRSB (immune response) (EB lesions; listed as Rolipram): did not affect the immune response
- number of PDGFR-α positive OPCs in lesions (EB lesions): remained elevated
- number of PLP positive cells (mature oligodendrocytes) (EB lesions): significant increase
- number of PDGFR-α positive OPCs in lesions (EB lesions; listed as Rolipram): maintained levels
- number of PLP positive cells (mature oligodendrocytes) (EB lesions; listed as Rolipram): strong increase
- number of Nkx2.2 positive cells (EB lesions; later stages (day 14), vs PBS vehicle): reached levels of control animals
- extent of remyelination, rank assessment (demyelinating lesions): able to promote remyelination in-vivo; also recorded: potently enhanced
